# According to article PMC11999280, “Design and screening of novel endosomal escape compounds that enhance functional delivery of oligonucleotides in vitro” (Molecular Therapy. Nucleic Acids, 2025):
# How the values were obtained:
# Type in all cases: cell-based
# [1] = system: mCherry-GAL9 expressing NCI-H358 cells; test: GAL9 recruitment assay, NCI-H358; settings: calculated mean from >3 independent exp.
# Summary of the method: (§1)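 Stable mCherry-GAL9 lines; 24 h post-seeding, compound dosed as dose-response. Endpoint: PBS wash, 4% PFA fix (RT), Hoechst 33342 1 μg/mL. Confocal imaging ×20w, GAL9 puncta quantified. N = 3, duplicate wells.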
# [2] = system: mCherry-GAL9 expressing HeLa cells; test: GAL9 recruitment assay, HeLa; settings: calculated mean from >3 independent exp.
# Summary of the method: as §1
# [3] = system: mCherry-GAL9 expressing HEK293 cells; test: GAL9 recruitment assay, HEK293; settings: calculated mean from >3 independent exp.
# Summary of the method: as §1
# [4] = system: mCherry-GAL9 expressing HepG2 cells; test: GAL9 recruitment assay, HepG2; settings: calculated mean from >3 independent exp.
# Summary of the method: as §1
# [5] = system: mCherry-GAL9 expressing 16HBE cells; test: GAL9 recruitment assay, 16HBE; settings: calculated mean from >3 independent exp.
# Summary of the method: as §1
# [6] = system: mCherry-GAL9 expressing U2OS cells; test: GAL9 recruitment assay, U2OS; settings: calculated mean from >3 independent exp.
# Summary of the method: as §1
# [7] = system: mCherry-GAL9 expressing HuH7 cells; test: GAL9 recruitment assay, HuH7; settings: calculated mean from >3 independent exp.
# Summary of the method: as §1
# [8] = system: mCherry-GAL9 expressing SHSY5Y cells; test: GAL9 recruitment assay, SHSY5Y; settings: calculated mean from >3 independent exp.
# Summary of the method: as §1
# [9] = system: HeLa_Luc705 cells (pLuc/705 splice-switching reporter); test: Functional 705-SSO delivery, luciferase splice-switching assay; settings: HeLa-Luc705 + 2 µM SSO; EEE 2.5 - 3 µM; mean from >3 independent experiments
# Summary of the method: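 Cells seeded at 10,000/well were pre-incubated 24 h with 1–2 μM 2′-O-methyl phosphorothioate 705-SSO, then exposed to endosomal escape enhancer at the stated concentrations. After 24 h, cells were lysed in 0.1% Triton X-100 and firefly luciferase luminescence was read as the splice-correction signal. LF2000 lipofection with 100–200 nM SSO served as transfection control.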
smiles,measurement,setting,value
COc1nn(C2CCN(C)CC2)cc1Nc1ncc(F)c(-n2ccc3ccc(C#N)cc32)n1 [EEE14],Gal9 response compared to reference,[1]; EEE 0.31 µM,0.015
same,Gal9 response compared to reference,[1]; EEE 0.62 µM,0.019
same,Gal9 response compared to reference,[1]; EEE 1.25 µM,0.019
same,Gal9 response compared to reference,[1]; EEE 2.5 µM,0.026
same,Gal9 response compared to reference,[1]; EEE 5 µM,0.073
same,Gal9 response compared to reference,[1]; EEE 10 µM,0.457
same,Gal9 response compared to reference,[2]; EEE 0.31 µM,0.005
same,Gal9 response compared to reference,[2]; EEE 0.62 µM,0.005
same,Gal9 response compared to reference,[2]; EEE 1.25 µM,0.004
same,Gal9 response compared to reference,[2]; EEE 2.5 µM,0.006
same,Gal9 response compared to reference,[2]; EEE 5 µM,0.035
same,Gal9 response compared to reference,[2]; EEE 10 µM,0.213
same,Gal9 response compared to reference,[3]; EEE 0.31 µM,0.023
same,Gal9 response compared to reference,[3]; EEE 0.62 µM,0.019
same,Gal9 response compared to reference,[3]; EEE 1.25 µM,0.018
same,Gal9 response compared to reference,[3]; EEE 2.5 µM,0.035
same,Gal9 response compared to reference,[3]; EEE 5 µM,0.123
same,Gal9 response compared to reference,[3]; EEE 10 µM,0.443
same,Gal9 response compared to reference,[4]; EEE 0.31 µM,0.008
same,Gal9 response compared to reference,[4]; EEE 0.62 µM,0.005
same,Gal9 response compared to reference,[4]; EEE 1.25 µM,0.005
same,Gal9 response compared to reference,[4]; EEE 2.5 µM,0.005
same,Gal9 response compared to reference,[4]; EEE 5 µM,0.015
same,Gal9 response compared to reference,[4]; EEE 10 µM,0.155
same,Gal9 response compared to reference,[5]; EEE 0.31 µM,0.010
same,Gal9 response compared to reference,[5]; EEE 0.62 µM,0.013
same,Gal9 response compared to reference,[5]; EEE 1.25 µM,0.014
same,Gal9 response compared to reference,[5]; EEE 2.5 µM,0.031
same,Gal9 response compared to reference,[5]; EEE 5 µM,0.118
same,Gal9 response compared to reference,[5]; EEE 10 µM,0.421
same,Gal9 response compared to reference,[6]; EEE 0.31 µM,0.013
same,Gal9 response compared to reference,[6]; EEE 0.62 µM,0.013
same,Gal9 response compared to reference,[6]; EEE 1.25 µM,0.015
same,Gal9 response compared to reference,[6]; EEE 2.5 µM,0.023
same,Gal9 response compared to reference,[6]; EEE 5 µM,0.058
same,Gal9 response compared to reference,[6]; EEE 10 µM,0.232
same,Gal9 response compared to reference,[7]; EEE 0.31 µM,0.009
same,Gal9 response compared to reference,[7]; EEE 0.62 µM,0.007
same,Gal9 response compared to reference,[7]; EEE 1.25 µM,0.010
same,Gal9 response compared to reference,[7]; EEE 2.5 µM,0.016
same,Gal9 response compared to reference,[7]; EEE 5 µM,0.047
same,Gal9 response compared to reference,[7]; EEE 10 µM,0.280
same,Gal9 response compared to reference,[8]; EEE 0.31 µM,0.013
same,Gal9 response compared to reference,[8]; EEE 0.62 µM,0.014
same,Gal9 response compared to reference,[8]; EEE 1.25 µM,0.017
same,Gal9 response compared to reference,[8]; EEE 2.5 µM,0.083
same,Gal9 response compared to reference,[8]; EEE 5 µM,0.403
same,Gal9 response compared to reference,[8]; EEE 10 µM,0.645
same,Luciferase expression compared to reference,[9],0.590
COc1nn(C2CCN(CCCO)CC2)cc1Nc1ncc(F)c(-n2ccc3c(C#N)cccc32)n1 [EEE12],Gal9 response compared to reference,[1]; EEE 0.31 µM,0.018
same,Gal9 response compared to reference,[1]; EEE 0.62 µM,0.032
same,Gal9 response compared to reference,[1]; EEE 1.25 µM,0.128
same,Gal9 response compared to reference,[1]; EEE 2.5 µM,0.574
same,Gal9 response compared to reference,[1]; EEE 5 µM,0.607
same,Gal9 response compared to reference,[1]; EEE 10 µM,0.422
same,Gal9 response compared to reference,[2]; EEE 0.31 µM,0.005
same,Gal9 response compared to reference,[2]; EEE 0.62 µM,0.015
same,Gal9 response compared to reference,[2]; EEE 1.25 µM,0.195
same,Gal9 response compared to reference,[2]; EEE 2.5 µM,0.550
same,Gal9 response compared to reference,[2]; EEE 5 µM,0.394
same,Gal9 response compared to reference,[2]; EEE 10 µM,0.118
same,Gal9 response compared to reference,[3]; EEE 0.31 µM,0.023
same,Gal9 response compared to reference,[3]; EEE 0.62 µM,0.122
same,Gal9 response compared to reference,[3]; EEE 1.25 µM,0.432
same,Gal9 response compared to reference,[3]; EEE 2.5 µM,0.716
same,Gal9 response compared to reference,[3]; EEE 5 µM,0.604
same,Gal9 response compared to reference,[3]; EEE 10 µM,0.273
same,Gal9 response compared to reference,[4]; EEE 0.31 µM,0.008
same,Gal9 response compared to reference,[4]; EEE 0.62 µM,0.010
same,Gal9 response compared to reference,[4]; EEE 1.25 µM,0.038
same,Gal9 response compared to reference,[4]; EEE 2.5 µM,0.146
same,Gal9 response compared to reference,[4]; EEE 5 µM,0.517
same,Gal9 response compared to reference,[4]; EEE 10 µM,0.574
same,Gal9 response compared to reference,[5]; EEE 0.31 µM,0.014
same,Gal9 response compared to reference,[5]; EEE 0.62 µM,0.063
same,Gal9 response compared to reference,[5]; EEE 1.25 µM,0.180
same,Gal9 response compared to reference,[5]; EEE 2.5 µM,0.658
same,Gal9 response compared to reference,[5]; EEE 5 µM,0.681
same,Gal9 response compared to reference,[5]; EEE 10 µM,0.421
same,Gal9 response compared to reference,[6]; EEE 0.31 µM,0.013
same,Gal9 response compared to reference,[6]; EEE 0.62 µM,0.017
same,Gal9 response compared to reference,[6]; EEE 1.25 µM,0.057
same,Gal9 response compared to reference,[6]; EEE 2.5 µM,0.299
same,Gal9 response compared to reference,[6]; EEE 5 µM,0.511
same,Gal9 response compared to reference,[6]; EEE 10 µM,0.588
same,Gal9 response compared to reference,[7]; EEE 0.31 µM,0.014
same,Gal9 response compared to reference,[7]; EEE 0.62 µM,0.031
same,Gal9 response compared to reference,[7]; EEE 1.25 µM,0.143
same,Gal9 response compared to reference,[7]; EEE 2.5 µM,0.357
same,Gal9 response compared to reference,[7]; EEE 5 µM,0.232
same,Gal9 response compared to reference,[7]; EEE 10 µM,0.103
same,Gal9 response compared to reference,[8]; EEE 0.31 µM,0.014
same,Gal9 response compared to reference,[8]; EEE 0.62 µM,0.271
same,Gal9 response compared to reference,[8]; EEE 1.25 µM,0.742
same,Gal9 response compared to reference,[8]; EEE 2.5 µM,0.706
same,Gal9 response compared to reference,[8]; EEE 5 µM,0.575
same,Gal9 response compared to reference,[8]; EEE 10 µM,0.177
same,Luciferase expression compared to reference,[9],1.720
